# Measurements published in US6566084B1, “Catalytic antibodies against cocaine and methods of using and producing same” (priority 1992, dated 2003).
# Columns and labels:
# [1] = in vivo; cited from earlier work
# [2] = Spontaneous hydrolysis of the methyl ester of cocaine to benzoyl ecgonine (HPLC); conditions: buffer, pH 7
# mAb 3B9 = experiment: Inhibition of 3B9-catalyzed cocaine hydrolysis; assay type: biochemical, BALB/c mice; conditions: 1 mM
# mAb 6A12 = experiment: Inhibition of 6A12-catalyzed cocaine hydrolysis; conditions: 1 mM
# [3] = equine BChE, ph7.4, published sources; cited from earlier work
compound,measurement,setting,value
COC(=O)[C@H]1[C@@H](OC(=O)c2ccccc2)C[C@@H]2CC[C@H]1N2C [cocaine],dose excreted unchanged in the urine,[1],< 10%
same,half-life,[2],20 h
CNC(=O)Oc1ccc2c(c1)[C@]1(C)CCN(C)[C@@H]1N2C [eserine],effect of serum esterase inhibitor on enzyme,mAb 3B9,unaffected
same,effect of serum esterase inhibitor on enzyme,mAb 6A12,unaffected
"BChE: equine butyrylcholinesterase, the principal cocaine esterase in serum",Kcat,[3],0.02 s⁻¹
same,Km,[3],38 µM
